The values that follow come from patent publication US20220251610A1, “Prehydrolysate Fermentability in Biomass Pretreatment” (University of Cincinnati, priority 2021, published 2022).

One assay relates to Saccharomyces cerevisiae. The experiment in a line: Yeast fermentation of prehydrolysates from dilute acid pretreatment of aspen with nucleophilic additives. The assay is classed as cell-based. Particulars: for time at which glucose was completely consumed: 4% (w/w of dry biomass) additive in dilute acid pretreatment, glucose about 20 g/L; for final ethanol concentration / glucose consumption rate / volumetric ethanol productivity: 4% additive in pretreatment; for final ethanol concentration: 48 h fermentation; for glucose consumption rate / volumetric ethanol productivity: first 6 h of fermentation. The protocol:
This analysis was carried out according to the NREL protocol. All pretreatment experiments were carried out in a Parr batch pressure vessel (model of 4520 of 2.0 L of capacity) (Parr Instrument Co., Moline, Ill.). […] All the pretreatment processes were conducted at 170° C. in 60 min. After pretreatment, the stirred reactor was quenched in a bucket with cold water. The slurry after pretreatment was separated into solid fraction and liquid fraction by vacuum filtration. The liquid fraction (prehydrolysates) was stored at 4° C. and used for subsequent analyses and fermentation. The pretreated substrates were washed with 560 mL warm water at least three times and collected by vacuum filtration. Fleischmann's pure dry yeast, Saccharomyces cerevisiae was stored at 4° C. and used for the ethanol fermentation. […] The concentration of yeast suspensions was determined by UV-spectrophotometer at 600 nm. […] Batch fermentation was taking place in a 250 mL flask with 50 mL prehydrolysates without any extra nutrients. […] Moreover, excessive CaCO3 was added to adjust the pH of prehydrolysates to 6. Then, the solution was filtered to remove CaCO3 and other impurities through the membrane filter (0.22 μm). All fermentation experiments were incubated at 30° C. and 150 rpm for 48 h in an incubator shaker (E24, New Brunswick Scientific). […] Fermentation was conducted in duplicate. The volumetric ethanol productivity (QEtOH) was calculated based on the produced ethanol in the first 6 h of fermentation as described previously. […] The sugar concentrations were detected by an Agilent 1260 HPLC system equipped with a Bio-Rad HPX-87P column (300×7.8 mm) connected to a refractive index detector (RID-10A). […] The column temperature and detector temperature were kept at 80, and 45° C., respectively. […] To examine whether adding nucleophilic additives in pretreatment can enhance prehydrolysate fermentability, cysteine, histidine, soy protein isolate (SPI) and bovine serum albumin (BSA) were added in the dilute acid pretreatment of aspen.

The conditions of assay [1]: Xylan 1.67 g/L; cited from earlier work.

In the case of `N[C@@H](CS)C(=O)O` [cysteine], in the assay on Saccharomyces cerevisiae, the “time at which glucose was completely consumed” value is given as 24 h, the final ethanol concentration came to 8.87 g/L, the glucose consumption rate is given as 1.35 g/L/h and the volumetric ethanol productivity is reported as 0.51 g/L/h.

Consider `N[C@@H](Cc1c[nH]cn1)C(=O)O` [histidine], for which, in the assay with Saccharomyces cerevisiae, the “time at which glucose was completely consumed” value is reported as 6 h, the final ethanol concentration worked out at 8.69 g/L, the glucose consumption rate is listed as 3.22 g/L/h and the volumetric ethanol productivity was determined as 1.44 g/L/h.

In the case of Xylan, the “reduction of the initial hydrolysis rate of Avicel” value in assay [1] is 34.5%.
